In ChEMBL document CHEMBL6078636, “A Spatiotemporally Controlled and Mitochondria-Targeted Prodrug of Hydrogen Sulfide Enables Mild Mitochondrial Uncoupling for the Prevention of Lipid Deposition” (J Med Chem, 2024):
One block for each compound: values may come before it. Calls of active or inactive are those of the source. The rule behind the calls is not given here.

Legend:
AML12 [1] = assay: Activation of mitochondrial AMPK in mouse AML12 cells assessed as increase in pMFF level under light irradiation upto 10 uM by Western blot analysis; type: cell-based; settings: filed as activator
[2] = Prodrug conversion assessed as H2S metabolite release upto 100 uM under photo-irradiation by methylene blue dye based analysis; type: ADME
[3] = Prodrug release in mouse AML12 cells assessed as H2S metabolite release at 10 uM incubated for 4 hrs followed by UV light-irradiation for 1 min by 2-OH-Cou probe based analysis; type: ADME, cell-based; settings: aml12, 4.017 h, time 241 min
AML12 [4] = assay: Induction of mitochondrial ROS via reverse electron transport driven by sulfide quinone oxidoreductase in mouse AML12 cells assessed as decrease in ratio of NAD+/NADH levels under photo-irradiation in presence of rotenone; type: functional, cell-based
AML12 [5] = assay: Induction of mitochondrial ROS in mouse AML12 cells harboring SQR knockdown under photo-irradiation; type: functional, cell-based
AML12 [6] = assay: Induction of H2O2 generation in mitochondria of mouse AML12 cells harboring SQR knockdown under photo-irradiation; type: functional
[7] = Drug uptake in mouse AML12 cells at 10 uM incubated for 4 hrs followed by UV light-irradiation for 1 min by WSP-5 probe based analysis; type: ADME, cell-based; settings: aml12, 4.017 h, time 241 min
AML12 [8] = assay: Inhibition of mitochondrial membrane potential in mouse AML12 cells under UV light-irradiation measured for 30 mins by TMRE staining based analysis; type: functional, cell-based
AML12 [9] = assay: Induction of mitochondrial uncoupling in oligomycin-treated mouse AML12 cells assessed as decrease in intracellular ATP level incubated for 4 hrs followed by UV light-irradiation for 1 min under photo-irradiation; type: functional, cell-based; settings: dose <= 10.0 µM, time 241.0 min
AML12 [10] = assay: Inhibition of mitochondrial membrane potential in mouse AML12 cells under UV light-irradiation by JC-1 staining based analysis; type: functional, cell-based
AML12 [11] = assay: Activation of mitochondrial AMPK phosphorylation in mouse AML12 cells under light irradiation by Western blot analysis; type: cell-based; settings: filed as activator, dose <= 10.0 µM
AML12 [12] = assay: Inhibition of excessive lipid deposition in mouse AML12 cells assessed as decrease in palmitic acid-induced total triglycerides at 1 to 10 uM by Oil Red O staining based analysis; type: functional, cell-based; settings: dose 1-10 µM
[13] = Prodrug conversion in mouse AML12 cells assessed as H2S metabolite release at 1 to 10 uM incubated for 4 hrs followed by UV light-irradiation for 1 min by WSP-5 probe based analysis; type: ADME, cell-based; settings: aml12, 4.017 h, dose 1-10 µM, time 241 min
AML12 [14] = assay: Induction of mitochondrial uncoupling in oligomycin-treated mouse AML12 cells assessed as increase in OCR level at 10 uM incubated for 4 hrs followed by UV light-irradiation for 1 min under photo-irradiation; type: functional, cell-based; settings: time 241.0 min
[15] = Prodrug conversion in mouse AML12 cells assessed as H2S metabolite release at 10 uM incubated for 4 hrs followed by UV light-irradiation for 1 min by […] based analysis; type: ADME, cell-based; settings: aml12, 4 h
AML12 [16] = assay: Activation of mitochondrial AMPK in mouse AML12 cells harboring SQR knockdown assessed as increase in pMFF level under light irradiation at 1 to 10 uM by Western blot analysis; type: cell-based; settings: dose 1-10 µM
AML12 [17] = assay: Inhibition of excessive lipid deposition in mouse AML12 cells assessed as decrease in palmitic acid-induced free fatty acid at 1 to 10 uM by Oil Red O staining based analysis; type: functional, cell-based; settings: dose 1-10 µM
AML12 [18] = assay: Induction of H2O2 generation in mitochondria of mouse AML12 cells under photo-irradiation; type: functional
AML12 [19] = assay: Induction of mitochondrial ROS via reverse electron transport driven by sulfide quinone oxidoreductase in mouse AML12 cells assessed as decrease in ratio of NAD+/NADH levels under photo-irradiation; type: functional, cell-based
[20] = Prodrug release in mouse AML12 cells assessed as H2S metabolite release at 1 to 10 uM incubated for 4 hrs followed by UV light-irradiation for 1 min by 2-OH-Cou probe based analysis; type: ADME, cell-based; settings: aml12, 4.017 h, dose 1-10 µM, time 241 min
AML12 [21] = assay: Cytotoxicity against mouse AML12 cells pretreated for 24 hrs followed by UV light-irradiation for 1 min by MTT assay; type: toxicity, cell-based; settings: aml12, 24.02 h, time 1441 min
AML12 [22] = assay: Activation of mitochondrial AMPK signal pathway in palmitic acid-stimulated mouse AML12 cells assessed as increase in pACC level under light irradiation at 1 to 10 uM by Western blot analysis; type: cell-based; settings: filed as activator, dose 1-10 µM
AML12 [23] = assay: Inhibition of excessive lipid deposition in mouse AML12 cells assessed as decrease in palmitic acid-induced lipid content by Oil Red O staining based analysis; type: functional, cell-based; settings: dose 1-10 µM
AML12 [24] = assay: Induction of mitochondrial ROS via reverse electron transport driven by sulfide quinone oxidoreductase in mouse AML12 cells assessed as increase in ratio of CoQH2/CoQ levels under photo-irradiation; type: functional, cell-based
AML12 [25] = assay: Inhibition of mitochondrial membrane potential in mouse AML12 cells under UV light-irradiation measured after 24 hrs by TMRE staining based analysis; type: functional, cell-based
AML12 [26] = assay: Activation of mitochondrial AMPK in mouse AML12 cells assessed as increase in pMFF level under light irradiation at 1 to 10 uM in presence of rotenone by Western blot analysis; type: cell-based; settings: dose 1-10 µM
AML12 [27] = assay: Inhibition of excessive lipid deposition in mouse AML12 cells assessed as decrease in palmitic acid-induced total cholesterol at 1 to 10 uM by Oil Red O staining based analysis; type: functional, cell-based; settings: dose 1-10 µM
AML12 [28] = assay: Induction of mitochondrial ROS via reverse electron transport driven by sulfide quinone oxidoreductase in mouse AML12 cells under photo-irradiation by MitoSOX staining based analysis; type: functional, cell-based
AML12 [29] = assay: Activation of mitochondrial AMPK signal pathway in palmitic acid-stimulated mouse AML12 cells under light irradiation in presence of AMPK inhibitor by Western blot analysis; type: cell-based
AML12 [30] = assay: Activation of mitochondrial AMPK in mouse AML12 cells assessed as increase in pACC level under light irradiation by Western blot analysis; type: cell-based; settings: filed as activator, dose <= 10.0 µM
[31] = Prodrug conversion in mouse AML12 cells assessed as H2S metabolite release at 10 uM incubated for 4 hrs followed by UV light-irradiation for 1 min by WSP-5 probe based analysis; type: ADME, cell-based; settings: aml12, 4.017 h, time 241 min

Activity [2]: Active | Drug metabolism [3]: metabolite_detected | Drug uptake [7]: 100% | Drug metabolism [13]: metabolite_detected | Drug metabolism [15]: metabolite_detected | Drug metabolism [20]: metabolite_detected
Compound: Cc1cc(C)c(C(C)(C)CC(=O)S)c(OC(=O)OCc2cc3ccc(OCc4cc(OCCCC[P+](c5ccccc5)(c5ccccc5)c5ccccc5)ccc4[N+](=O)[O-])cc3oc2=O)c1
Activity (AML12 [1]): Active | Activity (AML12 [4]): inactive | Activity (AML12 [5]): Active | Activity (AML12 [6]): Active | inhibition (AML12 [8]): Active | Activity (AML12 [9]): Dose-dependent-effect; Activity Superior To M2, Ap39, Adt-Oh | inhibition (AML12 [10]): inactive | Activity (AML12 [11]): Dose-dependent-effect; Exhibited More Potency Than Ap39 And Adt-Oh | inhibition (AML12 [12]): Active | Activity (AML12 [14]): Active | Activity (AML12 [16]): inactive | inhibition (AML12 [17]): Active | Activity (AML12 [18]): Active | Activity (AML12 [19]): Active | Activity (AML12 [21]): Non-toxic | Activity (AML12 [22]): Active; Exhibited More Potency Than Ap39 And Adt-Oh | inhibition (AML12 [23]): Dose-dependent-effect; Exhibited As More Effective Than Ap39 And Adt-Oh | Activity (AML12 [24]): Active | inhibition (AML12 [25]): inactive | Activity (AML12 [26]): inactive | inhibition (AML12 [27]): Active | Activity (AML12 [28]): Active | Activity (AML12 [29]): inactive | Activity (AML12 [30]): Dose-dependent-effect; Exhibited More Potency Than Ap39 And Adt-Oh

Drug metabolism [31]: metabolite_detected
Compound: O=C(CCCCCCCCC[P+](c1ccccc1)(c1ccccc1)c1ccccc1)Oc1ccc(-c2cc(=S)ss2)cc1.[Br-]
inhibition (AML12 [10]): inactive

Compound: Oc1ccc(-c2cc(=S)ss2)cc1
inhibition (AML12 [10]): inactive

Drug metabolism [3]: metabolite_notdetected
Compound: Cc1cc(C)c(C(C)(C)CC(=O)S)c(OC(=O)OCc2cc3ccc(OCc4ccccc4[N+](=O)[O-])cc3oc2=O)c1
inhibition (AML12 [10]): inactive | Activity (AML12 [21]): Non-toxic
